From article PMC6941357, “An in vitro toolbox to accelerate anti-malarial drug discovery and development” (Malaria Journal, 2020)
“And” between values parts separate entries of the source, which are not always exact repeats. Identical values can stand only once. Like-named read-outs stand apart in the source and are kept apart here.

How the values were obtained:
[1] = Octanol/pH 7.4 buffer partition coefficient, shake flask; settings: pH 7.4
Method in brief: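 Octanol stocks (3-30 mg/mL) were diluted 3- and 10-fold and shaken with equal volumes of pH 7.4 phosphate buffer (67 mM, in 43 mM NaCl) at 37 °C. Both phases were quantified by LC-MS against calibration standards. The coefficient is the mean octanol/buffer concentration ratio, with two time points confirming equilibrium.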

[2] = In vitro metabolism (metabolic stability) in human liver microsomes; settings: human
Method in brief: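 Compound depletion in human liver microsomes was followed by LC–MS at 2–60 min, with cofactor-free controls. First-order depletion rate constants gave in vitro CLint (µL/min/mg protein), corrected to unbound CLint using measured microsomal fu.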

CYP2C9 = CYP2C9 (Homo sapiens, UniProt P11712); assay: Cytochrome P450 inhibition in human liver microsomes
Method in brief: (§1)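 Substrate-specific interaction method in human liver microsomes: the test compound's effect on production of a single isoform-dependent metabolite, quantified by LC–MS using diazepam as internal standard, is reported as percent inhibition of enzyme activity. Substrate Km was determined under the same incubation conditions.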

CYP2C19 = CYP2C19 (Homo sapiens, UniProt P33261); assay: as above; settings: for CYP2C19 % inhibition at max conc / inhibition at 20 µM: microsomes; for inhibition at 20 µM: human, pH 7.4
Method in brief: as §1

CYP3A4 = CYP3A4 (Homo sapiens, UniProt P08684); assay: as above; settings: for IC50: highest concentration tested 20 µM; for CYP3A4 (midaz) % inhibition at max conc / inhibition at 20 µM / CYP3A4 (test) % inhibition at max conc: microsomes; for inhibition at 20 µM: human
Method in brief: as §1

[3] = biological target: T1, Albumax medium (lipid rich bovine serum albumin) (Bos taurus, UniProt P02769); assay: Binding in Albumax medium via ultracentrifugation; assay type: in vitro ADME; settings: bovine, pH 7.4
T1 construct: purchased Gibco, Thermo Fisher Scientific
Method in brief: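 Unbound fraction (fu) taken as protein-free supernate concentration over total concentration after ultracentrifuging compound-spiked Albumax at 37 °C (5% or 10% CO2, or air). Analysis used 1:1 mixing with the opposite blank matrix against a common pH 7.4 calibration; degradation judged by start versus end Ctotal.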

[4] = Plasma protein binding via ultracentrifugation (UC); assay type: in vitro ADME, human; settings: pH 7.4
Method in brief: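 Pooled human plasma (3–4 donors) spiked and ultracentrifuged; protein-free supernate gave Cunbound, parallel tubes kept at 37 °C gave Ctotal and stability (start vs end). Samples matrix-matched 1:1 with opposite blank and quantified against a common calibration curve; fu SD by error propagation.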

[5] = Solubility in biorelevant media; settings: for solubility at 1 h / solubility: thermodynamic from solid
Method in brief: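 Measured at 37 °C with 600 rpm orbital shaking in pH 7.4 PBS, FaSSIF-V2, FeSSIF-V2 and FaSSGF. Sampled at 1 h (FaSSGF) or 5–6 h (other media) after double centrifugation; supernatant quantified by LC–MS against calibration standards, triplicate aliquots.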

[6] = liver microsomes, pH 7.4, HLM CLint, human liver microsomes, average of n = 2 replicates, < 7 means < 15% loss over 60 min
[7] = CYP3A4 (midaz) IC50, human liver microsomes, CYP3A4 (midaz)
[8] = human, neat pooled plasma, ultracentrifugation, neat plasma, read-out: Fraction unbound, human plasma
[9] = FaSSGF, 37 °C, fassgf or other biorelevant
[10] = phosphate buffered saline pH 7.4, 37 °C, pH 7.4, aqueous buffer
[11] = pH 7.4, CYP3A4 (test) % inhibition at max conc
[12] = pH 7.4, CYP3A4 (midaz) % inhibition at max conc
[13] = CYP3A4 (test) IC50, human liver microsomes, CYP3A4 (test)
[14] = FaSSGF, FaSSIF-V2, FeSSIF-V2 and PBS pH 7.4, 37 °C, pH 7.4, aqueous buffer

Sequence of CYP2C19 (P33261 whole entry): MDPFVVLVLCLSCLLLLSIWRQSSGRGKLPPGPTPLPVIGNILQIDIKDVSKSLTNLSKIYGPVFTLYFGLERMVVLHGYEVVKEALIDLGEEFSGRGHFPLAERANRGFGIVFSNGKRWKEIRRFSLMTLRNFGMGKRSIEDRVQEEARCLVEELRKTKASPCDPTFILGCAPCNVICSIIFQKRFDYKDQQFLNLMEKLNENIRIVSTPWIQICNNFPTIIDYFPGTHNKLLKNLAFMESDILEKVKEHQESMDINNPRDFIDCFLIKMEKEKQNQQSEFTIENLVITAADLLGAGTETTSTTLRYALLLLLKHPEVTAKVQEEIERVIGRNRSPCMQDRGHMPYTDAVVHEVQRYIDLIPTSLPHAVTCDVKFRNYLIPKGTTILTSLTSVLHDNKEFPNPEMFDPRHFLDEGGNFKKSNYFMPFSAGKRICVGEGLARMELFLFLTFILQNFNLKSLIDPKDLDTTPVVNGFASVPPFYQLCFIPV
Sequence of CYP3A4 (P08684 whole entry): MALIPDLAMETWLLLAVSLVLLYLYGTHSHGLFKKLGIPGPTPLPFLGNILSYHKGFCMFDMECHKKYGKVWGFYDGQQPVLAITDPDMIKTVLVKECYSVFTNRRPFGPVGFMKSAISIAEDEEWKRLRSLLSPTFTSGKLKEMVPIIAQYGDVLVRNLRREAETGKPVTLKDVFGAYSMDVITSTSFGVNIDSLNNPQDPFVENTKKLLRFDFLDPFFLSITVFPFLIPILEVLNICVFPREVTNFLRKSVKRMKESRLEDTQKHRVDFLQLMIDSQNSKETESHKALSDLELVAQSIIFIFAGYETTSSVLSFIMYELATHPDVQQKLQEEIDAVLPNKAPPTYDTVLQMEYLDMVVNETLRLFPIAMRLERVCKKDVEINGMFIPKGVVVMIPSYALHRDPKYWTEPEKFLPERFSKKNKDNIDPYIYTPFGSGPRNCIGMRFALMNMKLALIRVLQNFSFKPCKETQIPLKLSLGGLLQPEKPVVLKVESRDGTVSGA
T1 sequence (P02769 25-607): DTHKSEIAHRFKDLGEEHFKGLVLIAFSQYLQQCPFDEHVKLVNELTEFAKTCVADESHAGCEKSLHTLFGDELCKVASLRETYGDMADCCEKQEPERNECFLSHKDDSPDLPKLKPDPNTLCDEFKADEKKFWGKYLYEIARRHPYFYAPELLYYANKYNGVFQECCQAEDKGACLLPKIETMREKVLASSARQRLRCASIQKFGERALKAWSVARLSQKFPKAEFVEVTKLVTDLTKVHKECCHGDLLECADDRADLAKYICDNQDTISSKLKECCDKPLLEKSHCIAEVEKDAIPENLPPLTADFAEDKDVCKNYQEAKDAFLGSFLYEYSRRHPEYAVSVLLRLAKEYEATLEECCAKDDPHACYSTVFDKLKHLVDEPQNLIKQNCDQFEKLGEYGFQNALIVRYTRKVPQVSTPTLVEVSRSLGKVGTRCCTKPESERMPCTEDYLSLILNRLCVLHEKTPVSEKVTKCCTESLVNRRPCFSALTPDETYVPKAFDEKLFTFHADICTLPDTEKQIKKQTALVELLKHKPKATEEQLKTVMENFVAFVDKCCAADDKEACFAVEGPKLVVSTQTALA
Sequence of CYP2C9 (P11712 whole entry, canonical isoform): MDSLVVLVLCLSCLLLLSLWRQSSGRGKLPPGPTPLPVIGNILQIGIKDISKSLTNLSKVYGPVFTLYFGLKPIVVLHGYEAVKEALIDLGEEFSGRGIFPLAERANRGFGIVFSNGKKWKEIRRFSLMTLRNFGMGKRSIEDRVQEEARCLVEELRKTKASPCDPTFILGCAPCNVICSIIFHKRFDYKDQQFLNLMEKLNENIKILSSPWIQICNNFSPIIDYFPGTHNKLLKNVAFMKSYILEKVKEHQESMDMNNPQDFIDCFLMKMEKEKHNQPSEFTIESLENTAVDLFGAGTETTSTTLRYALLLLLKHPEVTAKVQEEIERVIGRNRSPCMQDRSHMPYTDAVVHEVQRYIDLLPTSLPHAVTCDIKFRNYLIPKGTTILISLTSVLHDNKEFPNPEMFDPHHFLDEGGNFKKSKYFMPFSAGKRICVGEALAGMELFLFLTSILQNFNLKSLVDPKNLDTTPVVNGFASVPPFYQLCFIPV

Row | Compound | logD ([1]; octanol/pH 7.4 buffer) | microsomal CLint at 1 µM [2, 6] | IC50 (CYP2C9) | CYP2C9 % inhibition at max conc (CYP2C9; microsomes) | IC50 (CYP2C19) | CYP2C19 % inhibition at max conc (CYP2C19) | IC50 (CYP3A4; [7]) | fraction unbound at […], 500 ng/mL ([3]; isolated protein) | fraction unbound at […] [4, 8] | solubility at 1 h [5, 9] | solubility ([5]; FaSSIF-V2, 37 °C, fassif) | solubility ([5]; FeSSIF-V2, 37 °C, fessif) | solubility [5, 10] | inhibition at 20 µM (CYP3A4; [11]) | inhibition at 20 µM (CYP2C19) | inhibition at 20 µM (CYP3A4; [12]) | IC50 (CYP3A4; [13]) | further results
1 | CCNCc1cc(Nc2ccnc3cc(Cl)ccc23)ccc1O [Desethylamodiaquine] | 1.3 | 13.3 µL/min/mg | > 18 µM | nmi | > 18 µM | nmi | > 18 µM | 0.75 ± 0.074 | 0.17 ± 0.002 |  |  |  |  |  |  |  |  | CYP3A4 (midaz) % inhibition at max conc (CYP3A4): nmi
2 | OC(c1cc(C(F)(F)F)nc2c(C(F)(F)F)cccc12)C1CCCCN1 (centres unmarked) [Mefloquine] | 2.7 |  |  | nmi |  |  |  |  | 0.058 | 740 µg/mL and 1960 µM | 584 µg/mL and 1540 µM | > 2000 µg/mL and > 5200 µM | 290 µg/mL and 767 µM | 29% |  |  |  | microsomal CLint at 1 µM ([2]; microsomes, pH 7.4, HLM CLint): < 7 µL/min/mg; CYP3A4 (midaz) % inhibition at max conc (CYP3A4): nmi; fraction unbound at […], 500 ng/mL ([3]; Albumax medium): 0.27 ± 0.019
3 | CCc1nc(N)nc(N)c1-c1ccc(Cl)cc1 [Pyrimethamine] | 2.41 | < 7 µL/min/mg |  | nmi |  | nmi |  | 0.46 ± 0.09 | 0.085 | > 2000 µg/mL and > 8000 µM | 111 µg/mL and 446 µM | 120 µg/mL and 483 µM | 43 µg/mL and 175 µM |  |  |  |  | 
4 | COc1cc(NC(C)CCCN)c2ncccc2c1 (centres unmarked) [Primaquine] |  |  |  |  |  |  |  | 0.96 ± 0.056 |  |  |  |  |  |  | 34% | 31% |  | Log D7.4 [1]: 0.54; logD [1]: 0.54; microsomal CLint at 1 µM ([2]; microsomes, pH 7.4): 7.7 µL/min/mg; FaSSGF solubility [5]: > 2000 µg/mL; FaSSIF solubility [5]: > 2000 µg/mL; FeSSIF solubility [5]: > 2000 µg/mL; solubility ([5]; 37 °C, fassgf or other biorelevant): > 2000 µg/mL and > 7700 µM; solubility ([5]; 37 °C, fassif): > 2000 µg/mL and > 7700 µM; solubility ([5]; 37 °C, fessif): > 2000 µg/mL and > 7700 µM; solubility ([5]; 37 °C, pH 7.4, aqueous buffer): > 7.7 mM; Solubility PBS7.4 (5–6 h) ([5]; pH 7.4): > 2000/> 7700 µg/mL; inhibition at 20 µM (CYP2C9; human, microsomes, pH 7.4): 20%; CYP3A4 (test) % inhibition at max conc (CYP3A4): nmi; fraction unbound at […] ([4]; human, ultracentrifugation, neat plasma, read-out: Fraction unbound, human plasma): 0.26 ± 0.023
5 | Cc1nc(Nc2ncc(N3CCN(C)[C@H](C)C3)c(Nc3cc(C)n(C)n3)n2)cc(C2CC2)c1F [MMV253] | 4.42 | 13.2 µL/min/mg | > 20 µM | nmi |  |  |  | 0.48 ± 0.026 | 0.067 | > 2000 µg/mL and > 4300 µM | 569 µg/mL and 1220 µM | > 2000 µg/mL and > 4300 µM | 19 µg/mL and 40.8 µM | 37% |  |  | > 20 µM | 
6 | [H]/N=C(\N/C(=N/[H])Nc1ccc(Cl)cc1)NC(C)C [Proguanil] | 0.27 | < 7 µL/min/mg | > 20 µM | nmi | > 20 µM |  |  | 0.8 ± 0.021 | 0.34 ± 0.01 | > 2000 µg/mL and > 7880 µM | > 2000 µg/mL and > 7880 µM | > 2000 µg/mL and > 7880 µM | > 2000 µg/mL and > 7880 µM | 24% | 27% |  |  | solubility [5, 14]: > 2000 µg/mL; CYP3A4 (midaz) % inhibition at max conc (CYP3A4): nmi
7 | C[C@H]1[C@H](N2CCS(=O)(=O)CC2)O[C@@H]2O[C@@]3(C)CC[C@H]4[C@H](C)CC[C@@H]1[C@@]24OO3 [Artemisone] | 2.82 | 97.7 µL/min/mg |  |  |  |  |  | 0.46 ± 0.013 | 0.12 ± 0.006 | 89.1 µg/mL and 222 µM | 115 µg/mL and 286 µM | 278 µg/mL and 692 µM | 86.1 µg/mL and 214 µM |  |  |  |  | 
8 | CC1(C)c2nc(-c3ccc(F)cc3)c(Nc3ccc(F)cc3)n2CCN1C(=O)CN [KAF156] | 2.06 | 14.7 µL/min/mg |  |  |  |  |  | 0.38 ± 0.017 | 0.11 | > 2000 µg/mL and > 4850 µM | 1600 µg/mL and 3880 µM | > 2000 µg/mL and > 4850 µM | 560 µg/mL and 1360 µM |  | 40% |  |  | solubility [5, 14]: 400 to 500 µg/mL
9 | CC(C)(N)CNC(=O)C[C@H]1CC[C@]2(CC1)OO[C@]1(O2)C2CC3CC(C2)CC1C3 [OZ277, Arterolane] | 2.6 |  | > 20 µM |  | > 20 µM |  | > 20 µM | 0.29 ± 0.021 | 0.086 ± 0.008 | > 2000 µg/mL and > 5000 µM | > 2000 µg/mL and > 5100 µM | > 2000 µg/mL and > 5000 µM | 198 µg/mL and 504 µM | 46% |  | 26% | > 20 µM | logD ([1]; octanol/pH 7.4 phosphate buffered saline): 2.6; microsomal CLint at 1 µM ([2]; microsomes, pH 7.4, HLM CLint): < 7 µL/min/mg; FaSSGF solubility ([5]; FaSSGF): > 2000 µg/mL; FaSSIF solubility ([5]; FaSSIF): > 2000 µg/mL; FeSSIF solubility ([5]; FeSSIF): > 2000 µg/mL; fraction unbound at […] ([4]; human plasma, fraction unbound, read-out: Plasma fu): 0.086
10 | CC[C@H]1OC(=O)[C@H](C)[C@@H](O[C@H]2C[C@@](C)(OC)[C@@H](O)[C@H](C)O2)[C@H](C)[C@@H](O[C@@H]2O[C@H](C)C[C@H](N(C)C)[C@H]2O)[C@](C)(O)C[C@@H](C)CN(C)[C@H](C)[C@@H](O)[C@]1(C)O [Azithromycin] | 1.1 | < 7 µL/min/mg | > 20 µM | nmi | > 20 µM |  |  | 0.76 ± 0.065 | 0.71 | 1180 µg/mL and 1570 µM | 1440 µg/mL and 1930 µM | > 2000 µg/mL and > 2670 µM | > 2000 µg/mL and > 2670 µM |  | 29% |  |  | 
11 | CS(=O)(=O)c1ccc(-c2cnc(N)c(-c3ccc(C(F)(F)F)nc3)c2)cc1 [MMV048] | 2.5 | < 7 µL/min/mg | > 20 µM | nmi | > 20 µM | nmi |  | 0.46 ± 0.022 | 0.17 | 1200 µg/mL and 3040 µM | 6.73 µg/mL and 17.1 µM | 7.47 µg/mL and 19 µM | 4.52 µg/mL and 11.5 µM |  |  |  | > 20 µM | CYP3A4 (test) % inhibition at max conc (CYP3A4): nmi
12 | CO[C@H]1O[C@@H]2O[C@@]3(C)CC[C@H]4[C@H](C)CC[C@@H]([C@H]1C)[C@@]24OO3 [Artemether] | 3.7 | 163 µL/min/mg | > 20 µM | nmi | > 20 µM | nmi | > 20 µM | 0.46 ± 0.039 | 0.1 | 95 µg/mL and 320 µM | 166 µg/mL and 556 µM | 1040 µg/mL and 3480 µM | 109 µg/mL and 365 µM | 37% |  | 39% | > 20 µM | 
13 | COc1ccc2nc3cc(Cl)ccc3c(Nc3cc(CN4CCCC4)c(O)c(CN4CCCC4)c3)c2n1 [Pyronaridine] | 0.23 | 8.6 µL/min/mg | > 20 µM | nmi | > 20 µM | nmi | > 20 µM | 0.69 ± 0.023 | 0.21 | > 2000 µg/mL and > 3800 µM | > 2000 µg/mL and > 3860 µM | > 2000 µg/mL and > 3800 µM | 357 µg/mL and 689 µM |  |  | 28% | > 20 µM | CYP3A4 (test) % inhibition at max conc (CYP3A4): nmi
